The record followed here is patent publication US10342804B2, “Steroid compound for use in the treatment of hepatic encephalopathy” (Umecrine Cognition AB, priority 2014, dated 2019).

Read-outs that look alike come from different tables or passages of the source.

The nature of data set [1]: Exposure in plasma and brain tissue, hyperammonemic rats (Example 13). In kind it is in vivo, rat. The settings on record: for Total concentration in plasma: at the time for behavioral testing. As to the method:
(§1) Male Wistar rats (140-160 g) were made hyperammonemic by feeding them a diet containing ammonium acetate (30% by weight) (Felipo et al, European Journal of Biochemistry, 1988, 176, 567-571).
(§2) 3α-ethynyl-3β-hydroxyandrostan-17-one oxime in sesame oil was administered by subcutaneous injections in the back of the rats, once daily. Two different sets of experiments were performed in hyperammonemic rats. In the first set four groups of rats were used: 1) control rats injected with vehicle; 2) hyperammonemic rats injected with vehicle; 3) control rats injected with 20 mg/Kg of 3α-ethynyl-3β-hydroxyandrostan-17-one oxime and 4) hyperammonemic rats injected with 20 mg/Kg of 3α-ethynyl-3β-hydroxyandrostan-17-one oxime.
(§3) In the second set of experiments five groups of rats were used: 1) control rats injected with vehicle; 2) hyperammonemiac rats injected with vehicle and 3-5) hyperammonemic rats injected with 3, 10 or 20 mg/Kg of 3α-ethynyl-3β-hydroxyandrostan-17-one oxime. In each experiment 6-8 rats per group were used.
(§4) At the end of the treatment period plasma was collected from the tail vein, and after sacrifice by decapitation brains were collected and immediately frozen on dry ice. For analysis of 3α-ethynyl-3β-hydroxyandrostan-17-one oxime exposure, brain tissue was homogenized with a 1:4 ratio of tissue: PBS (pH 7.4) and then extracted with a 2-fold volume of methanol:acetonitrile (1:1), while plasma was protein-precipitated with a 3-fold volume with acetonitrile. Analyses were performed by Waters ACQUITY UPLC+Waters XEVO-TQS triple quadrupole mass spectrometer (Admescope Oy, Oulu, Finland). For calculations of the amount of free 3α-ethynyl-3β-hydroxyandrostan-17-one oxime exposure in the brain the fraction unbound (Fb) in brain homogenates were determined by dialysis, Fub in HA=[…] and Fub in PCS=1.43% (Admescope Oy, Oulu, Finland).

The subject of data set [2] is hyperammonemic rats. The experiment in a line: Motor coordination in the beam walking test, chronic hyperammonemia model (Example 4). The settings on record: 20 mg/kg s.c. once daily, 3rd-4th week of treatment. In kind it is in vivo, rat. The source says:
In this study an animal model of chronic hyperammonemia was used that reproduces many of the cognitive and motor alterations present in hepatic encephalopathy. Rats were fed with ammonia in their food and after two weeks with ammonia enriched food they developed symptoms of hepatic encephalopathy. The beam walking test was made during the 3rd and 4th week of 3α-ethynyl-3β-hydroxyandrostan-17-one oxime treatment while the Morris Water maze test was made during 4th-5th week of 3α-ethynyl-3β-hydroxyandrostan-17-one oxime treatment and the Radial maze test was made during 6th-7th week of 3α-ethynyl-3β-hydroxyandrostan-17-one oxime treatment.
The study was divided into two series with animals (male Wistar rats), each series included the following groups; Controls treated with vehicle (CV, n=8 per series), Controls treated with 3α-ethynyl-3β-hydroxyandrostan-17-one oxime (C+GAM, n=8 per series), hyperammonemic rats treated with vehicle (HAV, n=8 per series), hyperammonemic rats treated with 3α-ethynyl-3β-hydroxyandrostan-17-one oxime (HA+GAM, n=8 per series). […]
In the beam-walking test rats are trained to traverse an elevated, narrow beam to reach an enclosed escape platform. […] The parameters of motor coordination measured are: footslips (or foot faults) and latency to traverse the beam. […] The number of times the left or right hind paw slip off the beam was recorded for each trial.

Data set [3] concerns hyperammonemic rats. Briefly: Morris water maze memory test, hyperammonemic rats (Example 9). It is filed as in vivo, rat. As to the method: as §1, §2, §3
The test was carried out as described by Monfort et al. (European Journal of Neuroscience, 2007, 25, 2103-2111) using a circular pool (160 cm diameter, 40 cm height) arbitrarily divided into four quadrants. After pre-training, the rats were trained to learn the fixed location of the invisible platform over 3 days. Training involved placing the rat into the pool facing the wall in one of the three quadrants lacking the platform. A different starting point was randomly used on each trial. Training consisted of three swims per day. Each animal was allowed a maximum of 120 seconds to find the platform and was left for 20 seconds on the platform. […] The time needed to find the hidden platform was recorded manually and used as a measure of learning of the task.
(§5) Spatial memory was assessed 24 hours later by removing the platform and measuring the time spent by the rat in the quadrant where the platform was.

Data set [4] deals with receptors, ion channels and enzymes, including all major classes of neurotransmitter receptors. Briefly: Binding selectivity screen, 113 targets (Perkin Elmer customized screen). The settings on record: 10 μM, duplicate; neurotransmitter related receptors, steroid receptors, peptide receptors. As to the method:
The binding of 3α-ethynyl-3β-hydroxyandrostan-17-one oxime was determined for receptors, ion channels and enzymes, including all major classes of neurotransmitter receptors. In total 113 targets were tested in duplicate with 3α-ethynyl-3β-hydroxyandrostan-17-one oxime at 10 μM (Perkin Elmer, Customized screen). Binding activity was defined as greater than or equal to 50% inhibition of ligand binding.

The next data set deals with PCS rats. The experiment in a line: Morris water maze memory test, PCS rats (Example 9). It is filed as in vivo, rat. As to the method:
Male Wistar rats (220-240 g) were anesthetized with isoflurane, and an end-to side porta-caval anastomosis was performed as described by Lee and Fisher (Surgery, 1961, 50, 668-672).
Rats that were subjected to the porta-caval anastomosis procedure are herein referred to as “PCS rats”.
3α-ethynyl-3β-hydroxyandrostan-17-one oxime in sesame oil was administered by subcutaneous injections in the back of the rats, once daily. Two different sets of experiments were performed in hyperammonemic rats. In the first set four groups of rats were used: 1) control rats injected with vehicle; 2) hyperammonemic rats injected with vehicle; 3) control rats injected with 20 mg/Kg of 3α-ethynyl-3β-hydroxyandrostan-17-one oxime and 4) hyperammonemic rats injected with 20 mg/Kg of 3α-ethynyl-3β-hydroxyandrostan-17-one oxime. […]
The test was carried out as described by Monfort et al. (European Journal of Neuroscience, 2007, 25, 2103-2111) using a circular pool (160 cm diameter, 40 cm height) arbitrarily divided into four quadrants. […] The time needed to find the hidden platform was recorded manually and used as a measure of learning of the task.
as §5

Data set [5] can be described thus: Fraction unbound in brain homogenates by dialysis. In kind it is in vitro ADME. The settings on record: rat, brain homogenate, read-out: Fraction unbound (Fub) in brain homogenates. As to the method:
as §4

On to `C#C[C@]1(O)CC[C@@]2(C)C(CC[C@@H]3[C@@H]2CC[C@]2(C)/C(=N\O)CC[C@@H]32)C1` (stereo partly drawn) [3α-ethynyl-3β-hydroxyandrostan-17-one oxime], for which the “Unbound concentration in the brain tissue” value amounted to 6.1 ± 1.4 nmol/kg in data set [1] (3 mg/Kg s.c. once daily), 11.6 ± 1.4 nmol/kg in data set [1] (10 mg/Kg s.c. once daily) and 23 ± 5 nmol/kg in data set [1] (20 mg/Kg s.c. once daily). The “Total concentration in plasma” value is 0.34 ± 0.03 µM in data set [1] (3 mg/Kg s.c. once daily), 1.08 ± 0.11 µM in data set [1] (10 mg/Kg s.c. once daily) and 1.95 ± 0.61 µM in data set [1] (20 mg/Kg s.c. once daily). In the data set on hyperammonemic rats [2], the “Motor in-coordination in the beam-walking test (slips)” value is reported as “completely reversed motor in-coordination”. The “Percentage of time spent in the correct quadrant, Morris water maze memory test” value with hyperammonemic rats [3] (3 mg/kg) is 41±4%; in the data set on hyperammonemic rats [3] (10 mg/kg), 42±5%; with hyperammonemic rats [3] (20 mg/kg), 38±3%; in the data set with PCS rats (0.7 mg/kg), 34±4%; with PCS rats (2.5 mg/kg), 39±3%. In addition, the “Binding activity (greater than or equal to 50% inhibition of ligand binding)” value in data set [4] was “did not show binding activity”. The unbound share (fraction unbound) in data set [5] (pH 7.4, HA rats) was 0.007; in data set [5] (pH 7.4, PCS rats), 0.0143.
